Laboratory results: patent US7307044B2, “3-biphenyl-substituted-3-substituted-4-ketolactam and ketolactone and their utilization as pesticide” (Bayer CropScience AG, priority 2001, dated 2007)

What was measured:
[1] = tested on: larvae of the mustard beetle (Phaedon cochleariae); assay: Phaedon larvae test; type: in vivo; settings: cabbage leaves dipped
Method: (§1) Phaedon Larvae Test Solvent: 7 parts by weight of dimethylformamide Emulsifier: 2 parts by weight of alkylaryl polyglycol ether To produce a suitable preparation of active compound, 1 part by weight of active compound is mixed with the stated amounts of solvent and emulsifier, and the concentrate is diluted with emulsifier-containing water to the desired concentration. Cabbage leaves (Brassica oleracea) are treated by being dipped into the preparation of active compound of the desired concentration and are populated with larvae of the mustard beetle (Phaedon cochleariae) while the leaves are still moist. After the desired period of time, the kill in % is determined. 100% means that all beetle larvae have been killed; 0% means that none of the beetle larvae have been killed.

[2] = tested on: apple scab pathogen Venturia inaequalis; assay: Venturia test (apple)/protective; type: in vivo; settings: protective, 100 g/ha, evaluation 10 days after inoculation
Method: Venturia Test (Apple)/Protective Solvents: 24.5 parts by weight of acetone • 24.5 parts by weight of dimethylacetamide Emulsifier: 1.0 part by weight of alkylaryl polyglycol ether To produce a suitable preparation of active compound, 1 part by weight of active compound is mixed with the stated amounts of solvent and emulsifier, and the concentrate is diluted with water to the desired concentration. To test for protective activity, young plants are sprayed with the preparation of active compound at the stated application rate. After the spray coating has dried on, the plants are inoculated with an aqueous conidia suspension of the apple scab pathogen Venturia inaequalis and then remain in an incubation cabin at about 20° C. and 100% relative atmospheric humidity for 1 day. The plants are then placed in a greenhouse at about 21° C. and a relative atmospheric humidity of about 90%.

[3] = tested on: greenhouse red spider mite (Tetranychus urticae); assay: Tetranychus test (OP-resistent/dip treatment); type: in vivo; settings: 100 ppm, bean plants dipped
Method: Tetranychus Test (OP-Resistent/Dip Treatment)
Solvent: 7 parts by weight of dimethylformamide
Emulsifier: 2 parts by weight of alkylaryl polyglycol ether
To produce a suitable preparation of active compound, 1 part by weight of active compound is mixed with the stated amounts of solvent and emulsifier, and the concentrate is diluted with emulsifier-containing water to the desired concentration.
Bean plants (Phaseolus vulgaris) which are heavily infested by all stages of the greenhouse red spider mite (Tetranychus urticae) are dipped into a preparation of active compound of the desired concentration.
After the desired period of time, the effect in % is determined. 100% means that all spider mites have been killed; 0% means that none of the spider mites have been killed.

[4] = tested on: green peach aphid (Myzus persicae); assay: Myzus test; type: in vivo; settings: 500 ppm, cabbage leaves dipped
Method: as §1, with “Myzus” for “Phaedon Larvae”, “oleracea) which are heavily infested by the green peach aphid (Myzus persicae)” for “oleracea)”, “concentration.” for “concentration and are populated with larvae of the mustard beetle (Phaedon cochleariae) while the leaves are still moist.”, “aphids” for “beetle larvae”

[5] = tested on: Plasmopara viticola; assay: Plasmopara test (grapevine)/protective; type: in vivo; settings: protective, 100 g/ha, evaluation 6 days after inoculation
Method: Plasmopara Test (Grapevine)/Protective Solvents: 24.5 parts by weight of acetone • 24.5 parts by weight of dimethylacetamide Emulsifier: 1.0 part by weight of alkylaryl polyglycol ether To produce a suitable preparation of active compound, 1 part by weight of active compound is mixed with the stated amounts of solvent and emulsifier, and the concentrate is diluted with water to the desired concentration. To test for protective activity, young plants are sprayed with the preparation of active compound at the stated application rate. After the spray coating has dried on, the plants are inoculated with an aqueous spore suspension of Plasmopara viticola and then remain in an incubation cabin at 20° C. and 100% relative atmospheric humidity for 1 day. The plants are then placed in a greenhouse at about 21° C. and about 90% atmospheric humidity for 4 days. The plants are then moistened and placed in an incubation cabin for 1 day.

[6] = tested on: caterpillars of the armyworm (Spodoptera frugiperda); assay: Spodoptera frugiperda test; type: in vivo; settings: cabbage leaves dipped
Method: as §1, with “Spodoptera frugiperda” for “Phaedon Larvae”, “caterpillars” for “larvae”, “armyworm (Spodoptera frugiperda)” for “mustard beetle (Phaedon cochleariae)”, “caterpillars” for “beetle larvae”

[7] = tested on: Amaranthus; assay: Post-emergence test (greenhouse); type: in vivo; settings: 250 g ai/ha, after three weeks
Method: (§2) Solvent: 5 parts by weight of acetone
(§3) Emulsifier: 1 part by weight of alkylaryl polyglycol ether
(§4) To produce a suitable preparation of active compound, 1 part by weight of active compound is mixed with the stated amount of solvent, the stated amount of emulsifier is added and the concentrate is diluted with water to the desired concentration.
(§5) Test plants of a height of 5-15 cm are sprayed with the preparation of active compound such that the particular amounts of active compound desired are applied per unit area. The concentration of the spray liquor is chosen such that the particular amounts of active compound desired are applied in 1000 l of water/ha.
(§6) After three weeks, the degree of damage to the plants is rated in % damage in comparison to the development of the untreated control.
(§7) The figures denote: • 0%=no effect (like untreated control) • 100%=total destruction

[8] = tested on: Avena fatua; assay: Post-emergence test (greenhouse); type: in vivo; settings: 250 g ai/ha, after three weeks
Method: as §2, §3, §4, §5, §6, §7

[9] = tested on: Setaria; assay: Post-emergence test (greenhouse); type: in vivo; settings: 250 g ai/ha, after three weeks
Method: as §2, §3, §4, §5, §6, §7

[10] = tested on: Echinochloa; assay: Post-emergence test (greenhouse); type: in vivo; settings: 250 g ai/ha, after three weeks
Method: as §2, §3, §4, §5, §6, §7

[11] = tested on: Alopecurus; assay: Post-emergence test (greenhouse); type: in vivo; settings: 250 g ai/ha, after three weeks
Method: as §2, §3, §4, §5, §6, §7

[12] = tested on: caterpillars of the diamondback moths (Plutella xylostella); assay: Plutella test; type: in vivo; settings: 500 ppm, cabbage leaves dipped
Method: as §1, with “Plutella” for “Phaedon Larvae”, “caterpillars” for “larvae”, “diamondback moths (Plutella xylostella)” for “mustard beetle (Phaedon cochleariae)”, “caterpillars” for “beetle larvae”

[13] = tested on: caterpillars of the armyworm (Spodoptera exigua); assay: Spodoptera exigua test; type: in vivo; settings: 500 ppm, cabbage leaves dipped
Method: as §1, with “Spodoptera exigua” for “Phaedon Larvae”, “caterpillars” for “larvae”, “armyworm (Spodoptera exigua)” for “mustard beetle (Phaedon cochleariae)”, “caterpillars” for “beetle larvae”

[14] = tested on: Sugar beet; assay: Post-emergence test (greenhouse); type: in vivo; settings: 250 g ai/ha, after three weeks
Method: as §2, §3, §4, §5, §6, §7

[15] = physchem; type: physicochemical; settings: for log P: pH 2.3
Method: The stated log P values were determined in accordance with EEC Directive 79/831 Annex V.A8 by HPLC (High Performance Liquid Chromatography) using a reversed-phase column (C 18). Temperature: 43° C. • (a) Mobile phases for the determination in the acidic range: 0.1% aqueous phosphoric acid, acetonitrile; linear gradient from 10% acetonitrile to 90% acetonitrile. • (b) Mobile phases for the determination in the neutral range: 0.01 molar aqueous phosphate buffer solution, acetonitrile; linear gradient from 10% acetonitrile to 90% acetonitrile.
Calibration was carried out using unbranched alkan-2-ones (of 3 to 16 carbon atoms) with known log P values (determination of the log P values by the retention times using linear interpolation between two successive alkanones).

| log P [15] | SMILES | Kill rate in % after 7 d ([1]; 500 ppm) [%] | Kill rate in % after 7 d [3] [%] | Kill rate in % after 6 d [4] [%] | Kill rate in % after 7 d ([6]; 500 ppm) [%] | degree of damage to the plants in % damage [8] [%] | degree of damage to the plants in % damage [9] [%] | degree of damage to the plants in % damage [10] [%] | degree of damage to the plants in % damage [11] [%] | other results |
| --- | --- | --- | --- | --- | --- | --- | --- | --- | --- | --- |
| – | Cc1ccc(-c2cccc(Cl)c2)cc1C1(Cl)C(=O)NC(C)(C)C1=O (stereo not shown) [Ex. I-1-3] | 100 | – | – | – | – | – | – | – | – |
| – | Cc1cc(C)c(C2(Cl)C(=O)NC3(CCOCC3)C2=O)cc1-c1ccc(Cl)cc1 (stereo not shown) [Ex. I-1-6] | 100 | 99 | 98 | 100 | 100 | 95 | 100 | 70 | % efficacy [2]: 99%; % efficacy [5]: 94%; degree of damage to the plants in % damage [7]: 70% |
| – | Cc1cc(C)c(C2(Cl)C(=O)NC3(CCCOC3)C2=O)cc1-c1ccc(Cl)cc1 (stereo not shown) [Ex. I-1-7] | 100 | 98 | 100 | 100 | 95 | 100 | 100 | 90 | – |
| – | CCOC1CCC2(CC1)NC(=O)C(Cl)(c1c(C)cc(-c3ccc(Cl)cc3)cc1Cl)C2=O (stereo not shown) [Ex. I-1-9] | 100 | – | 95 | – | 100 | 100 | 100 | 95 | – |
| – | Cc1ccc(-c2ccc(Cl)cc2)cc1C1(Cl)C(=O)NC(C)(C(C)C)C1=O (stereo not shown) [Ex. I-1-11] | 100 | 99 | – | 100 | 90 | 100 | 100 | 95 | % efficacy [2]: 100%; Kill rate in % after 7 d [12]: 100%; % efficacy [5]: 100%; Kill rate in % after 7 d [13]: 90%; degree of damage to the plants in % damage [14]: 0% |
| – | COC1CCC2(CC1)NC(=O)C(Cl)(c1cc(-c3cccc(Cl)c3)ccc1Cl)C2=O (stereo not shown) [Ex. I-1-12] | 100 | 100 | – | 100 | – | – | – | – | Kill rate in % after 7 d [12]: 100%; % efficacy [5]: 94% |
| – | COC1CCC2(CC1)NC(=O)C(Cl)(c1cc(-c3ccc(Cl)c(Cl)c3)ccc1C)C2=O (stereo not shown) [Ex. I-1-13] | 100 | 95 | 100 | 100 | 90 | 90 | 100 | 95 | Kill rate in % after 7 d [12]: 100%; % efficacy [5]: 94%; Kill rate in % after 7 d [13]: 100% |
| – | Cc1ccc(-c2ccc(Cl)cc2)cc1C1(Cl)C(=O)NC2(CCOCC2)C1=O (stereo not shown) [Ex. I-1-14] | 100 | 99 | 100 | 100 | 100 | 100 | 100 | 80 | % efficacy [5]: 100%; degree of damage to the plants in % damage [14]: 0% |
| – | Cc1ccc(-c2ccc(Cl)c(Cl)c2)cc1C1(Cl)C(=O)NC(C)(C)C1=O (stereo not shown) [Ex. I-1-15] | 100 | 99 | 95 | 100 | – | – | – | – | Kill rate in % after 7 d [12]: 100%; Kill rate in % after 7 d [13]: 100% |
| – | Cc1ccc(-c2ccc(Cl)cc2)cc1C1(Cl)C(=O)OC(C)(C)C1=O (stereo not shown) [Ex. I-2-1] | – | 98 | – | – | – | – | – | – | Kill rate in % after 7 d ([1]; 1000 ppm): 100%; chromatographic logP ([15]; pH 2.5): 4.8; Kill rate in % after 7 d ([6]; 1000 ppm): 100% |
| – | Cc1ccc(-c2ccc(Cl)cc2)cc1C1(Cl)C(=O)SC2(CCCCC2)C1=O (stereo not shown) [Ex. I-3-1] | 100 | – | – | – | – | – | – | – | – |
| log P 5.61 | Cc1ccc(-c2ccc(Cl)cc2)cc1C1(Cl)C(=O)OC(C)(C(C)C)C1=O (stereo not shown) [I-2-5] | – | – | – | – | – | – | – | – | – |
| log P 5.56 | Cc1cc(C)c(C2(Cl)C(=O)OC3(CCCC3)C2=O)cc1-c1ccc(Cl)cc1 (stereo not shown) [I-2-6] | – | – | – | – | – | – | – | – | – |
| log P 5.05 | CCc1ccc(-c2ccc(Cl)cc2)cc1C1(Cl)C(=O)OC(C)(C)C1=O (stereo not shown) [I-2-7] | – | – | – | – | – | – | – | – | – |
| log P 4.30 | Cc1ccc(-c2cccc(F)c2)cc1C1(Cl)C(=O)OC(C)(C)C1=O (stereo not shown) [I-2-11] | – | – | – | – | – | – | – | – | – |
| log P 5.59 | CCOC1CCC2(CC1)OC(=O)C(Cl)(c1c(C)cc(-c3ccc(Cl)cc3)cc1CC)C2=O (stereo not shown) [I-2-13] | – | – | – | – | – | – | – | – | – |
| log P 5.11 | Cc1cc(-c2ccc(Cl)cc2)cc(C)c1C1(Cl)C(=O)OC(C)(C)C1=O (stereo not shown) [I-2-14] | – | – | – | – | – | – | – | – | – |
| log P 4.91 | Cc1cc(-c2ccc(Cl)cc2)cc(C)c1C1(Cl)C(=O)OC2(CCCOC2)C1=O (stereo not shown) [I-2-17] | – | – | – | – | – | – | – | – | – |
